Laboratory results published in publication PMC12351382, “Fibrinography and thrombography (thrombodynamics-4D) in atrial fibrillation assessment of direct oral anticoagulants in geriatrics patients aged 80 years and older receiving direct oral anticoagulant therapy” (Research and Practice in Thrombosis and Haemostasis, 2025).

Columns and labels:
thrombin generation [1] = experiment: Thrombodynamics-4D thrombography in plasma samples from ADAGE patients on DOACs; format: in vivo, human; conditions: for ETP (endogenous thrombin potential, ETP_ATG), median (IQR) / ETP (endogenous thrombin potential, ETP_ATG), range / Thrombin peak height (Cmax_ATG), median (IQR) / Thrombin peak height (Cmax_ATG), range / Thrombography Tlag (Lag_ATG), median (IQR) / Thrombography Tlag (Lag_ATG), range / Time to peak (Tmax_ATG), median (IQR) / Time to peak (Tmax_ATG), range: ADAGE patients, reduced dose (regimens as E1)
Description: (§1) ADAGE is an academic, prospective, observational multicenter study (NCT 02464488; for details, see Foulon-Pinto et al.). We recruited hospitalized patients from the university hospital’s geriatric department (Assistance Publique-Hôpitaux de Paris, Paris, France). […] The DOAC dose regimen was at the discretion of the physician. Exclusion criteria included any acute, unstable comorbid condition or an estimated life expectancy of a few weeks. Sampling (see below) and last DOAC intake times were recorded on a standardized request form. Sampling time points were at the discretion of the physicians over a period of 20 days following inclusion. Time points were classified according to the time elapsed from the last oral intake (T, hours) for patients receiving rivaroxaban. T1 to T4 corresponded to peak time (Tmax), and T20 to T24 corresponded to trough (Tmin). […] Physicians prospectively collected demographic, clinical, and laboratory data (including creatinine clearance [CrCl] calculated with the Cockcroft–Gault formula). The study was approved by the institutionnel Ethics Committee (Comité consultatif de protection des personnes pour la recherche biomédicale–Île-de-France-6–number 15.074bis). All participants gave written informed consent to participate in the study. Only patients for whom remaining plasma aliquots were available were included in the present study.
(§2) Tubes were sent to each centre’s laboratory within 2 hours after sampling and immediately double-centrifuged for 15 minutes at 2000 × g at 15 to 22 °C to obtain platelet-poor plasma. Plasma samples (500 μL aliquots) were stored at −80 °C prior to shipment on dry ice for central analysis (Haematology Laboratory, Hôpital Lariboisière). Plasma samples were thawed for 3 to 5 minutes in a 37 °C water bath just before testing.
(§3) The TD-4D assay was performed centrally using the Thrombodynamics analyzer system (Hemacore, Diapharma) with the TD-4D PLS dedicated kit (Hemacore, Diapharma). The system simultaneously measures spatiotemporal parameters of fibrin clot formation (fibrinography) and TG process (thrombography) in a thin layer of unstirred plasma. Briefly, 120 μL of platelet-poor plasma is added to a microcuvette containing corn trypsin inhibitor to prevent contribution of contact phase activation, then 5 μL of phospholipid solution (manufacturer’s reagent) is added. After incubation for 15 minutes at 37 °C in the Thrombodynamics device, the mixture is transferred to a second microcuvette containing calcium ions, and then immediately transferred to the measurement cuvette. Finally, the activator insert, whose surface is coated with immobilized tissue factor (100 pmol/m^2), is then transferred to the cuvette. The process of fibrin clot formation is recorded in a time-lapse video-microscopy mode using a dark-field light scattering method. Simultaneously, the system monitors TG by fluorimetry, based on the ability of thrombin to cleave a fluorogenic substrate, 7-amino-4-methylcoumarin (AMC) bound to a short amino acid sequence (Arg-Gly-Gly). The rate of AMC formation is proportional to local thrombin concentration. The microcuvette is maintained at 37 °C and is illuminated with red (625 nm) or ultra-violet (365 nm) light emitting diodes. Clot growth is detected with red light scattering, while AMC fluorescence is detected with UV. Scattered red light and fluorescence passing through the macro lens are recorded by a charge-coupled device system. Images under red and blue light are acquired once per minute. The whole analysis lasts 1 hour. The Thrombodynamics software (Hemacore, Diapharma) calculates parameters of spatiotemporal dynamics of fibrin clot formation and TG [40, 46]. […]

[2] = Plasma DOAC concentration in ADAGE patients (chromogenic anti-FXa assay for rivaroxaban and apixaban; anti-FIIa Hemoclot assay for dabigatran); format: in vivo, human; conditions: for DOAC concentration, median (IQR): ADAGE patients ≥80 y, reduced dose: rivaroxaban 15 mg once daily, apixaban 2.5 mg twice daily, dabigatran 110 mg twice daily; for DOAC concentration, range: ADAGE patients, reduced dose (regimens as E1)
Description: as §1, §2
Dedicated calibrations and controls were used. The lower limit of quantification was 20 ng/mL for the 3 assays.

thrombin generation [3] = experiment: Thrombodynamics-4D thrombography in pooled normal plasma (Cryocheck) spiked with DOACs; format: biochemical, human
Description: (§4) Frozen pooled normal plasma samples (Cryocheck-Cryopep) were spiked with increasing concentrations of DOACs (0-450 ng/mL), as previously described. […] were kindly provided by Bristol Myers Squibb/Pfizer, Bayer Healthcare, and Boehringer Ingelheim, respectively.
as §3, with “minute.” for “minute. The whole analysis lasts 1 hour. The Thrombodynamics software (Hemacore, Diapharma) calculates parameters of spatiotemporal dynamics of fibrin clot formation and TG [40, 46].”
(§5) The following fibrinography parameters were recorded (see Supplementary Table 1): (i) lag time (Tlag, minutes); (ii) initial rate of clot growth (Vi, μm/min); (iii) rate of clot growth (V, μm/min); (iv) clot size (CS, μm) measured at 30 minutes; (v) clot density (D, arbitrary units); (vi) time to spontaneous clotting (Tsp, minutes). The following thrombography parameters (at the near-activator area) were recorded (see Supplementary Table 1): (i) Tlag (minutes); (ii) time to thrombin peak (minutes); (iii) maximal thrombin concentration (ie, thrombin peak height, Cmax_ATG, AU/L); (iv) endogenous thrombin potential (ETP_ATG, AU⋅min/L); (v) stationary amplitude of moving peak of thrombin (Ast, AU/L); (vi) rate of thrombin peak propagation (μm/min; see Supplementary Videos 1–3).

fibrin clot formation [4] = experiment: Thrombodynamics-4D fibrinography in plasma samples from ADAGE patients on DOACs; format: in vivo, human; conditions: for CS (clot size at 30 minutes), median (IQR) / CS (clot size at 30 minutes), range / D (clot density), median (IQR) / D (clot density), range / Fibrinography Tlag (lag time), median (IQR) / Fibrinography Tlag (lag time), range / Initial rate of clot growth (Vi), median (IQR) / Initial rate of clot growth (Vi), range / Time to Tsp (spontaneous clotting), median (IQR) / Time to Tsp (spontaneous clotting), range: ADAGE patients, reduced dose (regimens as E1)
Description: as §1, §2, §3

fibrin clot formation [5] = experiment: Thrombodynamics-4D fibrinography in pooled normal plasma (Cryocheck) spiked with DOACs; format: biochemical, human; conditions: 0 to 1000 nM, mainly at low DOAC concentrations
Description: as §4
The TD-4D assay was performed centrally using the Thrombodynamics analyzer system (Hemacore, Diapharma) with the TD-4D PLS dedicated kit (Hemacore, Diapharma). The system simultaneously measures spatiotemporal parameters of fibrin clot formation (fibrinography) and TG process (thrombography) in a thin layer of unstirred plasma. Briefly, 120 μL of platelet-poor plasma is added to a microcuvette containing corn trypsin inhibitor to prevent contribution of contact phase activation, then 5 μL of phospholipid solution (manufacturer’s reagent) is added. […] The process of fibrin clot formation is recorded in a time-lapse video-microscopy mode using a dark-field light scattering method. […] Clot growth is detected with red light scattering, while AMC fluorescence is detected with UV. Scattered red light and fluorescence passing through the macro lens are recorded by a charge-coupled device system. […]
as §5

[6] = univariate analysis, Tmax, line marked Halving
[7] = univariate analysis, Tmin, line marked Halving
[8] = all ADAGE patient samples, any time point and dose
[9] = all ADAGE patient samples, Spearman

DOAC concentration, median (IQR) ([2]; Tmax (peak)): 248 (181-397) ng/mL
DOAC concentration, range ([2]; Tmax (peak)): 64 to 676 ng/mL
DOAC concentration, median (IQR) ([2]; Tmin (trough)): 42 (27-69) ng/mL
DOAC concentration, range ([2]; Tmin (trough)): 20 to 149 ng/mL
DOAC plasma concentration, lower end of range [2, 8]: < 20 ng/mL
DOAC plasma concentration, upper end of range [2, 8]: 676 ng/mL
Structure (SMILES): O=C(NC[C@H]1CN(c2ccc(N3CCOCC3=O)cc2)C(=O)O1)c1ccc(Cl)s1 [Rivaroxaban]
ETP (endogenous thrombin potential, ETP_ATG), median (IQR) (thrombin generation [1]; Tmax (peak)): 1391 (1176-1774) AU⋅min/L
ETP (endogenous thrombin potential, ETP_ATG), range (thrombin generation [1]; Tmax (peak)): 601-2371 AU⋅min/L
Thrombin peak height (Cmax_ATG), median (IQR) (thrombin generation [1]; Tmax (peak)): 203 (140-268) AU/L
Thrombin peak height (Cmax_ATG), range (thrombin generation [1]; Tmax (peak)): 64-371 AU/L
Thrombography Tlag (Lag_ATG), median (IQR) (thrombin generation [1]; Tmax (peak)): 1.1 (0.8-1.5) min
Thrombography Tlag (Lag_ATG), range (thrombin generation [1]; Tmax (peak)): 0.6 to 3.9 min
Time to peak (Tmax_ATG), median (IQR) (thrombin generation [1]; Tmax (peak)): 3.1 (2.6-3.8) min
Time to peak (Tmax_ATG), range (thrombin generation [1]; Tmax (peak)): 2.6 to 7.1 min
ETP (endogenous thrombin potential, ETP_ATG), median (IQR) (thrombin generation [1]; Tmin (trough)): 1832 (1322-2480) AU⋅min/L
ETP (endogenous thrombin potential, ETP_ATG), range (thrombin generation [1]; Tmin (trough)): 557-3572 AU⋅min/L
Thrombin peak height (Cmax_ATG), median (IQR) (thrombin generation [1]; Tmin (trough)): 289 (254-422) AU/L
Thrombin peak height (Cmax_ATG), range (thrombin generation [1]; Tmin (trough)): 132- 544 AU/L
Thrombography Tlag (Lag_ATG), median (IQR) (thrombin generation [1]; Tmin (trough)): 0.2 (0.1-0.4) min
Thrombography Tlag (Lag_ATG), range (thrombin generation [1]; Tmin (trough)): 0.1 to 0.9 min
Time to peak (Tmax_ATG), median (IQR) (thrombin generation [1]; Tmin (trough)): 2.1 (1.6-2.1) min
Time to peak (Tmax_ATG), range (thrombin generation [1]; Tmin (trough)): 1.6 to 3.1 min
Change of ETP_ATG with increasing DOAC plasma concentrations (thrombin generation [1]; all ADAGE patient samples): decreased
Effect of DOAC concentration at Tmax (βC.pic) on thrombography peak height (PH) (thrombin generation [1]; [6]): ≈ 0.1032%
Effect of DOAC concentration at Tmin (βC.res) on thrombography peak height (PH) (thrombin generation [1]; [7]): ≈ 0.238%
Change of Ast (stationary amplitude of thrombin moving peak) with increasing concentrations (thrombin generation [3]): not
CS (clot size at 30 minutes), median (IQR) (fibrin clot formation [4]; Tmax (peak)): 1236 (1112-1393) μm
CS (clot size at 30 minutes), range (fibrin clot formation [4]; Tmax (peak)): 1019-1759 μm
D (clot density), median (IQR) (fibrin clot formation [4]; Tmax (peak)): 23,230 (20,060-28,420) a.u.
D (clot density), range (fibrin clot formation [4]; Tmax (peak)): 14,690-33,710 a.u.
Fibrinography Tlag (lag time), median (IQR) (fibrin clot formation [4]; Tmax (peak)): 2.0 (1.7-2.6) min
Fibrinography Tlag (lag time), range (fibrin clot formation [4]; Tmax (peak)): 1.3 to 4.7 min
Initial rate of clot growth (Vi), median (IQR) (fibrin clot formation [4]; Tmax (peak)): 60.6 (56.2-65.3) μm/min
Initial rate of clot growth (Vi), range (fibrin clot formation [4]; Tmax (peak)): 45.0-84.6 μm/min
Time to Tsp (spontaneous clotting), median (IQR) (fibrin clot formation [4]; Tmax (peak)): 18.5 (11.4-31.6) min
Time to Tsp (spontaneous clotting), range (fibrin clot formation [4]; Tmax (peak)): 7.7 to 58.1 min
CS (clot size at 30 minutes), median (IQR) (fibrin clot formation [4]; Tmin (trough)): 1691 (1632-1734) μm
CS (clot size at 30 minutes), range (fibrin clot formation [4]; Tmin (trough)): 1276-2029 μm
D (clot density), median (IQR) (fibrin clot formation [4]; Tmin (trough)): 23,940 (20,550-30,160) a.u.
D (clot density), range (fibrin clot formation [4]; Tmin (trough)): 18,160-37,370 a.u.
Fibrinography Tlag (lag time), median (IQR) (fibrin clot formation [4]; Tmin (trough)): 1.2 (1.0-1.4) min
Fibrinography Tlag (lag time), range (fibrin clot formation [4]; Tmin (trough)): 0.8 to 2.1 min
Initial rate of clot growth (Vi), median (IQR) (fibrin clot formation [4]; Tmin (trough)): 70.4 (64.9-75.8) μm/min
Initial rate of clot growth (Vi), range (fibrin clot formation [4]; Tmin (trough)): 56.5-87.1 μm/min
Time to Tsp (spontaneous clotting), median (IQR) (fibrin clot formation [4]; Tmin (trough)): 10.9 (7.1-23.1) min
Time to Tsp (spontaneous clotting), range (fibrin clot formation [4]; Tmin (trough)): 3.2 to 42.3 min
Change of CS (clot size) with increasing concentrations (fibrin clot formation [4]; all ADAGE patient samples): decreased
Association of D (clot density) with DOAC concentration (fibrin clot formation [4]; [9]): not
Relationship between time to spontaneous clot formation (Tsp) and DOAC levels (fibrin clot formation [4]; [9]): no relationship
Effect of DOAC concentration at Tmax (βC.pic) on fibrinography initial velocity of clot formation (fibrin clot formation [4]; [6]): ≈ −0.001769%
Effect of DOAC concentration at Tmin (βC.res) on fibrinography initial velocity of clot formation (fibrin clot formation [4]; [7]): ≈ 0.08094%
Samples in which spontaneous clotting occurred (fibrin clot formation [5]): 14%
